Source: the supplement of paper PMC10307832

What was measured:
Assay in all cases: relative viability (nuclei count vs DMSO), 5 days (fraction); higher = more cells survive
Shikonin + Palbociclib = compound: CC(C)=CC[C@@H](O)C1=CC(=O)c2c(O)ccc(O)c2C1=O [Shikonin] + CC(=O)c1c(C)c2cnc(Nc3ccc(N4CCNCC4)cn3)nc2n(C2CCCC2)c1=O [Palbociclib] (partner 0.5 µM)
Outline: (§1)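 Lung cancer cell lines in 1536-well plates got either a single drug or a fixed anchor-drug dose together with five library-drug doses (not always all listed) in √10 steps, by pin tool, on the day after seeding. Nuclei were counted after 5 days, and relative viability is the treated-to-vehicle ratio of nuclei counts. Values are medians of duplicate plates.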

Shikonin + Navitoclax = compound: CC(C)=CC[C@@H](O)C1=CC(=O)c2c(O)ccc(O)c2C1=O [Shikonin] + CC1(C)CCC(c2ccc(Cl)cc2)=C(CN2CCN(c3ccc(C(=O)NS(=O)(=O)c4ccc(N[C@H](CCN5CCOCC5)CSc5ccccc5)c(S(=O)(=O)C(F)(F)F)c4)cc3)CC2)C1 [Navitoclax] (partner 0.5 µM)
Outline: as §1

[1] = compound: CC(C)N(CCCNC(=O)Nc1ccc(C(C)(C)C)cc1)C[C@H]1O[C@@H](n2ccc3c(N)ncnc32)[C@H](O)[C@@H]1O + C[C@@H](Oc1cc(-c2cnn(C3CCNCC3)c2)cnc1N)c1c(Cl)ccc(F)c1Cl [Crizotinib] (partner 1 µM)
Outline: as §1

[2] = compound: CC(C)N(CCCNC(=O)Nc1ccc(C(C)(C)C)cc1)C[C@H]1O[C@@H](n2ccc3c(N)ncnc32)[C@H](O)[C@@H]1O + C[C@]1(O)C[C@@H](c2nc(-c3ccc4ccc(-c5ccccc5)nc4c3)c3c(N)nccn32)C1 [Linsitinib] (partner 1 µM)
Outline: as §1

NCI-H1944
relative viability (Shikonin + Palbociclib; first compound 0.01 µM): 0.311
relative viability (Shikonin + Palbociclib; first compound 0.1 µM): 0.403
relative viability (Shikonin + Palbociclib; first compound 0.3162 µM): 0.321
relative viability (Shikonin + Palbociclib; first compound 1 µM): 0.349
relative viability (Shikonin + Navitoclax; first compound 0.01 µM): 0.988
relative viability (Shikonin + Navitoclax; first compound 0.1 µM): 1.1
relative viability (Shikonin + Navitoclax; first compound 0.3162 µM): 1.08
relative viability (Shikonin + Navitoclax; first compound 1 µM): 1.14
relative viability ([1]; first compound 0.08 µM): 1.09
relative viability ([1]; first compound 0.253 µM): 1.09
relative viability ([1]; first compound 0.8 µM): 1.14
relative viability ([1]; first compound 2.53 µM): 1.13
relative viability ([1]; first compound 8 µM): 1.1
relative viability ([2]; first compound 0.08 µM): 1.09
relative viability ([2]; first compound 0.253 µM): 1.15
relative viability ([2]; first compound 0.8 µM): 1.17
relative viability ([2]; first compound 2.53 µM): 1.22
relative viability ([2]; first compound 8 µM): 1.16

NCI-H1975
relative viability (Shikonin + Palbociclib; first compound 0.01 µM): 0.549
relative viability (Shikonin + Palbociclib; first compound 0.1 µM): 0.629
relative viability (Shikonin + Palbociclib; first compound 0.3162 µM): 0.541
relative viability (Shikonin + Palbociclib; first compound 1 µM): 0.641
relative viability (Shikonin + Navitoclax; first compound 0.01 µM): 1.16
relative viability (Shikonin + Navitoclax; first compound 0.1 µM): 1.37
relative viability (Shikonin + Navitoclax; first compound 0.3162 µM): 1.33
relative viability (Shikonin + Navitoclax; first compound 1 µM): 0.91
relative viability ([1]; first compound 0.08 µM): 0.895
relative viability ([1]; first compound 0.253 µM): 0.867
relative viability ([1]; first compound 0.8 µM): 0.879
relative viability ([1]; first compound 2.53 µM): 0.806
relative viability ([1]; first compound 8 µM): 0.839
relative viability ([2]; first compound 0.08 µM): 0.842
relative viability ([2]; first compound 0.253 µM): 0.902
relative viability ([2]; first compound 0.8 µM): 0.744
relative viability ([2]; first compound 2.53 µM): 0.836
relative viability ([2]; first compound 8 µM): 0.878

NCI-H1993
relative viability (Shikonin + Palbociclib; first compound 0.01 µM): 0.687
relative viability (Shikonin + Palbociclib; first compound 0.1 µM): 0.672
relative viability (Shikonin + Palbociclib; first compound 0.3162 µM): 0.722
relative viability (Shikonin + Palbociclib; first compound 1 µM): 0.455
relative viability (Shikonin + Navitoclax; first compound 0.1 µM): 0.814
relative viability (Shikonin + Navitoclax; first compound 0.3162 µM): 0.936
relative viability (Shikonin + Navitoclax; first compound 1 µM): 1.01
relative viability ([1]; first compound 0.08 µM): 0.767
relative viability ([1]; first compound 0.253 µM): 0.935
relative viability ([1]; first compound 0.8 µM): 0.877
relative viability ([1]; first compound 2.53 µM): 0.841
relative viability ([1]; first compound 8 µM): 0.888
relative viability ([2]; first compound 0.08 µM): 0.806
relative viability ([2]; first compound 0.253 µM): 0.761
relative viability ([2]; first compound 0.8 µM): 0.738
relative viability ([2]; first compound 2.53 µM): 0.752
relative viability ([2]; first compound 8 µM): 0.654

NCI-H2009
relative viability (Shikonin + Palbociclib; first compound 0.01 µM): 0.248
relative viability (Shikonin + Palbociclib; first compound 0.1 µM): 0.203
relative viability (Shikonin + Palbociclib; first compound 0.3162 µM): 0.213
relative viability (Shikonin + Palbociclib; first compound 1 µM): 0.145
relative viability (Shikonin + Navitoclax; first compound 0.01 µM): 1.23
relative viability (Shikonin + Navitoclax; first compound 0.1 µM): 1.16
relative viability (Shikonin + Navitoclax; first compound 0.3162 µM): 1.19
relative viability (Shikonin + Navitoclax; first compound 1 µM): 1.05
relative viability ([1]; first compound 0.08 µM): 1.03
relative viability ([1]; first compound 0.253 µM): 0.971
relative viability ([1]; first compound 0.8 µM): 1.08
relative viability ([1]; first compound 2.53 µM): 0.999
relative viability ([1]; first compound 8 µM): 1.08
relative viability ([2]; first compound 0.08 µM): 1.18
relative viability ([2]; first compound 0.253 µM): 1.21
relative viability ([2]; first compound 0.8 µM): 1.18
relative viability ([2]; first compound 2.53 µM): 1.13
relative viability ([2]; first compound 8 µM): 0.958

NCI-H2023
relative viability (Shikonin + Palbociclib; first compound 0.01 µM): 0.437
relative viability (Shikonin + Palbociclib; first compound 0.1 µM): 0.363
relative viability (Shikonin + Palbociclib; first compound 0.3162 µM): 0.411
relative viability (Shikonin + Palbociclib; first compound 1 µM): 0.401
relative viability (Shikonin + Navitoclax; first compound 0.01 µM): 1.03
relative viability (Shikonin + Navitoclax; first compound 0.1 µM): 1.06
relative viability (Shikonin + Navitoclax; first compound 0.3162 µM): 1.03
relative viability (Shikonin + Navitoclax; first compound 1 µM): 0.97
relative viability ([1]; first compound 0.08 µM): 0.753
relative viability ([1]; first compound 0.253 µM): 0.733
relative viability ([1]; first compound 0.8 µM): 0.859
relative viability ([1]; first compound 2.53 µM): 0.755
relative viability ([1]; first compound 8 µM): 0.751
relative viability ([2]; first compound 0.08 µM): 0.661
relative viability ([2]; first compound 0.253 µM): 0.734
relative viability ([2]; first compound 0.8 µM): 0.72
relative viability ([2]; first compound 2.53 µM): 0.709
relative viability ([2]; first compound 8 µM): 0.652

NCI-H2085
relative viability (Shikonin + Palbociclib; first compound 0.01 µM): 0.468
relative viability (Shikonin + Palbociclib; first compound 0.1 µM): 0.509
relative viability (Shikonin + Palbociclib; first compound 0.3162 µM): 0.447
relative viability (Shikonin + Palbociclib; first compound 1 µM): 0.479
relative viability (Shikonin + Navitoclax; first compound 0.01 µM): 1.08
relative viability (Shikonin + Navitoclax; first compound 0.1 µM): 1.09
relative viability (Shikonin + Navitoclax; first compound 0.3162 µM): 1.13
relative viability (Shikonin + Navitoclax; first compound 1 µM): 0.664
relative viability ([1]; first compound 0.08 µM): 0.764
relative viability ([1]; first compound 0.253 µM): 0.884
relative viability ([1]; first compound 0.8 µM): 0.99
relative viability ([1]; first compound 2.53 µM): 0.836
relative viability ([1]; first compound 8 µM): 0.785
relative viability ([2]; first compound 0.08 µM): 0.912
relative viability ([2]; first compound 0.253 µM): 0.949
relative viability ([2]; first compound 0.8 µM): 0.805
relative viability ([2]; first compound 2.53 µM): 0.958
relative viability ([2]; first compound 8 µM): 0.943

NCI-H2087
relative viability (Shikonin + Palbociclib; first compound 0.01 µM): 0.235
relative viability (Shikonin + Palbociclib; first compound 0.1 µM): 0.234
relative viability (Shikonin + Palbociclib; first compound 0.3162 µM): 0.219
relative viability (Shikonin + Palbociclib; first compound 1 µM): 0.256
relative viability (Shikonin + Navitoclax; first compound 0.01 µM): 1.01
relative viability (Shikonin + Navitoclax; first compound 0.1 µM): 1.15
relative viability (Shikonin + Navitoclax; first compound 0.3162 µM): 1.01
relative viability (Shikonin + Navitoclax; first compound 1 µM): 0.917
relative viability ([1]; first compound 0.08 µM): 0.981
relative viability ([1]; first compound 0.253 µM): 1.04
relative viability ([1]; first compound 0.8 µM): 1.16
relative viability ([1]; first compound 2.53 µM): 0.945
relative viability ([1]; first compound 8 µM): 0.795
relative viability ([2]; first compound 0.08 µM): 1.06
relative viability ([2]; first compound 0.253 µM): 1.14
relative viability ([2]; first compound 0.8 µM): 0.998
relative viability ([2]; first compound 2.53 µM): 1.18
relative viability ([2]; first compound 8 µM): 0.965

NCI-H2126
relative viability (Shikonin + Palbociclib; first compound 0.01 µM): 0.362
relative viability (Shikonin + Palbociclib; first compound 0.1 µM): 0.408
relative viability (Shikonin + Palbociclib; first compound 0.3162 µM): 0.379
relative viability (Shikonin + Palbociclib; first compound 1 µM): 0.349
relative viability (Shikonin + Navitoclax; first compound 0.01 µM): 0.84
relative viability (Shikonin + Navitoclax; first compound 0.1 µM): 0.86
relative viability (Shikonin + Navitoclax; first compound 0.3162 µM): 0.879
relative viability (Shikonin + Navitoclax; first compound 1 µM): 0.864
relative viability ([1]; first compound 0.08 µM): 1.01
relative viability ([1]; first compound 0.253 µM): 0.986
relative viability ([1]; first compound 0.8 µM): 1.06
relative viability ([1]; first compound 2.53 µM): 0.992
relative viability ([1]; first compound 8 µM): 0.959
relative viability ([2]; first compound 0.08 µM): 0.713
relative viability ([2]; first compound 0.253 µM): 0.674
relative viability ([2]; first compound 0.8 µM): 0.743
relative viability ([2]; first compound 2.53 µM): 0.749
relative viability ([2]; first compound 8 µM): 0.676
